Measurements reported in PMC6838151 (Scientific Reports, 2019).
In brackets after ≈: the same amount, converted by molar mass. Where two headings read alike, the source gives them in different places.

What was measured:
[1] = tested on: S. cerevisiae WT (W303); test: MIC50 growth inhibition, S. cerevisiae wt W303, 48 h; format: cell-based; settings: Saccharomyces cerevisiae
Source text: (§1) The following strains of S. cerevisiae were used in this study: BY4741 (wild type towards erg6Δ, ACC Y00000; MATa; his3Δ1; leu2Δ0; met15Δ0; ura3Δ0), erg6Δ (ACC Y00568; BY4741 isogenic with YML008c::kanMX4), W303 (wild type towards AD1-8; MATα; leu2-3,112 trp1-1 can1-100 ura3-1 ade2-1 his3-11,15 AD1-8 (W303 isogenic with pdr1-3, ura3, his1, yor1∆::hisG, snq2∆::hisG, pdr5∆::hisG, pdr10∆::hisG, pdr11∆:: hisG, ycf1∆::hisG, pdr3∆::hisG, pdr15∆::hisG). BY4741 and erg6Δ were acquired from EUROSCARF, Frankfurt, Germany; W303 and AD1-8 were kind gifts from Prof. A. Goffeau, Chaire Internationale Blaise Pascal, Lab. Genet. Mol., École Normale Supérieure, Paris, and Prof. M. Ghislain, Université Catholique de Louvain, Faculté des sciences Agronomiques, Louvain-la-Neuve, Belgium. Visible turbid overnight cultures of S. cerevisiae strains were prepared and diluted to A600 ≈ 0.1 in fresh Yeast Extract – Peptone - Dextrose (YPD) medium. […] The yeast cultures were statically incubated at 30 °C for 48 hours with compounds[88]. The dose-response curves were analysed with GraphPad Prism 5 software (San Diego, USA) or a microplate reader ASYS UVM (Biogenet). All values presented are the mean of at least three independent experiments.

[2] = tested on: S. cerevisiae erg6Δ; test: MIC50 growth inhibition, S. cerevisiae erg6Δ deletion mutant, 48 h; format: cell-based, Saccharomyces cerevisiae
Source text: (§2) For the preliminary studies of the biological activity of the studied compound we chose S. cerevisiae, which is generally considered a non-pathogenic organism, but currently recognized as a potentially important agent causing opportunistic infections against immunocompromised patients. In order to assess whether all the Ke derivatives share the mechanism of action with the parent compound, or if they might present different or additional modes of action, the inhibitory concentration MIC50 (Table 2) was determined on the basis of the dose-response curves (Fig. S11 in ESI) in a 48 h assay against S. cerevisiae wt strain BY4741 and the deletion mutant erg6Δ, which lacks the gene coding for the S-adenosylmethionine: 24-methyltransferase[52], accumulating cholesta-5,7,24-trienol and zymosterol instead of ergosterol. There are several studies reporting that the ERG6 gene deletion may increase the resistance of S. cerevisiae cells to azole compounds[54]–[56]. […] The value determined for the wt strain is in very good agreement with previous studies carried out under similar condition (48 h, 30 °C) (e.g.[57]).
(§3) The following strains of S. cerevisiae were used in this study: BY4741 (wild type towards erg6Δ, ACC Y00000; MATa; his3Δ1; leu2Δ0; met15Δ0; ura3Δ0), erg6Δ (ACC Y00568; BY4741 isogenic with YML008c::kanMX4), W303 (wild type towards AD1-8; MATα; leu2-3,112 trp1-1 can1-100 ura3-1 ade2-1 his3-11,15 AD1-8 (W303 isogenic with pdr1-3, ura3, his1, yor1∆::hisG, snq2∆::hisG, pdr5∆::hisG, pdr10∆::hisG, pdr11∆:: hisG, ycf1∆::hisG, pdr3∆::hisG, pdr15∆::hisG). BY4741 and erg6Δ were acquired from EUROSCARF, Frankfurt, Germany; W303 and AD1-8 were kind gifts from Prof. A. Goffeau, Chaire Internationale Blaise Pascal, Lab. Genet. Mol., École Normale Supérieure, Paris, and Prof. M. Ghislain, Université Catholique de Louvain, Faculté des sciences Agronomiques, Louvain-la-Neuve, Belgium. Visible turbid overnight cultures of S. cerevisiae strains were prepared and diluted to A600 ≈ 0.1 in fresh Yeast Extract – Peptone - Dextrose (YPD) medium. The cultures were transferred to 96 microtiter well plates containing aliquots of serially diluted antifungal drugs (Ke and its derivatives: KeP, KeOP, KeSP, KeSeP), prepared from DMS stock solutions and drug-free controls. The yeast cultures were statically incubated at 30 °C for 48 hours with compounds[88]. The dose-response curves were analysed with GraphPad Prism 5 software (San Diego, USA) or a microplate reader ASYS UVM (Biogenet). All values presented are the mean of at least three independent experiments.

[3] = tested on: S. cerevisiae WT (BY4741); test: MIC50 growth inhibition, S. cerevisiae wt BY4741, 48 h; format: cell-based, Saccharomyces cerevisiae; settings: YPD, 30 °C
Source text: as §2, §3

[4] = tested on: S. cerevisiae AD1-8; test: MIC50 growth inhibition, S. cerevisiae AD1-8 (lacks major ABC transporters), 48 h; format: cell-based, Saccharomyces cerevisiae; settings: for MIC50: Saccharomyces cerevisiae
Source text: as §1

[5] = tested on: C. albicans B3; test: microbe, parasite or virus in culture; format: cell-based; settings: Candida albicans
Source text: (§4) The C. albicans CAF2-1 (Genotype/Description: ura3Δ::imm434/URA3[89]) and DSY1050 (Genotype/Description: cdr1Δ::hisG/cdr1Δ::hisG/cdr2Δ::hisG/cdr2Δ::hisG/mdr1Δ::hisG-URA3-hisG/mdr1Δ::hisG[90]) strains used in this study were generous gift from D. Sanglard (Lausanne, Switzerland)[91],[92] whereas C. albicans B3 and Gu4 (Genotype/Description: clinical isolates fluconazole sensitive)[93]), B4 (Genotype/Description: Clinical isolate fluconazole resistant due to the overexpression of MDR1[93]) and Gu5 (Genotype/Description: Clinical isolate fluconazole resistant due to the overexpression of CDR1 and CDR2[93]) were a generous gift from prof. S. Milewski (Gdańsk, Poland)[94] and prof. J. Morschhäuser (Wurzburg, Germany)[93]. All strains were grown at 37 °C on Sabouraud medium (Biomerieux).
(§5) The antifungal activity was determined on the 96-well polystyrene microtiter plates (Sarstedt) according to Clinical and Laboratory Standards Institute M27-A3[95]. […] The compounds were dissolved in DMSO (10 mM) and then serially diluted in RPMI-1640 (ThermoFisher) medium to obtain the final concentration range. Inocula of all strains were prepared as suspensions with turbidity of 0.5 McFarland standard in sterile 0.85% saline and diluted in RPMI-1640. After inoculation, each well contained appr. 5 × 10^2 CFU/mL. The plates were cultivated for 48 h at 37 °C. Optical density was measured at A490nm using a microplate reader ASYS UVM 340 (Biogenet).

[6] = tested on: C. albicans Gu4; test: microbe, parasite or virus in culture; format: cell-based; settings: Candida albicans, GU4, 48 h
Source text: as §4, §5

[7] = tested on: C. albicans DSY1050; test: microbe, parasite or virus in culture; format: cell-based, Candida albicans; settings: for MIC50: Candida albicans, DSY1050, 48 h; for times more susceptible than parental strain (CAF2-1): DSY1050 vs CAF2-1
Source text: as §4, §5

[8] = tested on: C. albicans Gu5; test: microbe, parasite or virus in culture; format: cell-based, Candida albicans; settings: for times more resistant than Gu4 strain: Gu5 vs Gu4
Source text: as §4, §5

[9] = tested on: C. albicans CAF2-1; test: microbe, parasite or virus in culture; format: cell-based, Candida albicans; settings: for MIC50: Candida albicans, CAF21, 48 h; for times more active than Flc: C. albicans CAF2-1, MIC50 ratio
Source text: as §4, §5

[10] = S. cerevisiae WT (W303), YPD, 30 °C, read-out: MIC50
[11] = S. cerevisiae erg6Δ, YPD, 30 °C
[12] = Saccharomyces cerevisiae, read-out: MIC50
[13] = C. albicans B3, RPMI-1640, 37 °C, 48 h, read-out: MIC50
[14] = C. albicans Gu5, RPMI-1640, 37 °C, 48 h
[15] = AD18, S. cerevisiae AD1-8, YPD, 30 °C, 48 h, read-out: MIC50

For `CC(=O)N1CCN(c2ccc(OCC3COC(Cn4ccnc4)(c4ccc(Cl)cc4Cl)O3)cc2)CC1` (stereo not shown) [Ke, ketoconazole, reference compound], the MIC50 [1, 10] was 6.25 µM (≈ 3.32 µg/mL), the MIC50 [2, 11] was “no activity” and the MIC50 ([2]; Saccharomyces cerevisiae) was over 200 µM. It also gave an MIC50 [3, 12] of 0.865 µM (≈ 0.46 µg/mL), an MIC50 ([4]; AD18, 48 h) of 0.02 µM (≈ 0.0106 µg/mL) and an MIC50 ([5]; B3, 48 h) of 0.05 µM (≈ 0.0266 µg/mL). For the same compound, the MIC50 [6] was 25 µM (≈ 13.3 µg/mL), the MIC50 [7] was 0.02 µM (≈ 0.0106 µg/mL) and the MIC50 ([8]; Candida albicans, GU5, 48 h) was 50 µM (≈ 26.6 µg/mL). It also gave an MIC50 [9] of 0.05 µM (≈ 0.0266 µg/mL).

In the case of `S=P(CN1CCN(c2ccc(OC[C@H]3CO[C@](Cn4ccnc4)(c4ccc(Cl)cc4Cl)O3)cc2)CC1)(c1ccccc1)c1ccccc1` [KeSP, Ph2P(S)CH2-Ke], the MIC50 [1] is reported as over 200 µM, the MIC50 [2, 11] is reported as “inactive” and the MIC50 ([2]; Saccharomyces cerevisiae) is reported as over 200 µM. For the same compound, the MIC50 [3, 12] was over 200 µM, the MIC50 [3] was “inactive” and the “MIC50 against AD1-8 lower than against W303 cells” value ([4]; AD1-8 vs W303) was “more than 3 orders of magnitude”. For the same compound, the MIC50 ([4]; AD18, 48 h) was 0.2 µM (≈ 0.144 µg/mL), the MIC50 [5, 13] was 1.56 µM (≈ 1.12 µg/mL) and the MIC50 [6] was 50 µM (≈ 36 µg/mL). For the same compound, the MIC50 [7] was 0.39 µM (≈ 0.281 µg/mL), the “times more susceptible than parental strain (CAF2-1)” value [7] was “eight” and the MIC50 [8, 14] was “no inhibitory effect”. The MIC50 ([8]; Candida albicans, GU5, 48 h) was over 200 µM, the “times more active than Flc” value [9] was “two” and the MIC50 [9] was 3.13 µM (≈ 2.25 µg/mL).

For `Clc1ccc([C@@]2(Cn3ccnc3)OC[C@H](COc3ccc(N4CCN(CP(=[Se])(c5ccccc5)c5ccccc5)CC4)cc3)O2)c(Cl)c1` [KeSeP, Ph2P(Se)CH2-Ke], the MIC50 [1, 10] was 50 µM (≈ 38.3 µg/mL), the MIC50 ([2]; Saccharomyces cerevisiae) was 0.578 µM (≈ 0.443 µg/mL) and the MIC50 [3, 12] was 1.24 µM (≈ 0.954 µg/mL). It also gave an MIC50 [4, 15] of 0.2 µM (≈ 0.153 µg/mL), an MIC50 [5, 13] of 3.13 µM (≈ 2.4 µg/mL) and an MIC50 [6] of 12.5 µM (≈ 9.58 µg/mL). For the same compound, the MIC50 [7] was 0.78 µM (≈ 0.598 µg/mL), the “times more susceptible than parental strain (CAF2-1)” value [7] was “four” and the MIC50 [8, 14] was “no inhibitory effect”. For the same compound, the MIC50 ([8]; Candida albicans, GU5, 48 h) was over 200 µM, the “times more active than Flc” value [9] was “two” and the MIC50 [9] was 3.13 µM (≈ 2.4 µg/mL).

In the case of `Clc1ccc([C@@]2(Cn3ccnc3)OC[C@H](COc3ccc(N4CCN(CP(c5ccccc5)c5ccccc5)CC4)cc3)O2)c(Cl)c1` (racemic) [KeP, Ph2PCH2-Ke], the MIC50 [1, 10] is reported as 12.5 µM (≈ 8.6 µg/mL), the MIC50 ([2]; Saccharomyces cerevisiae) is reported as 0.654 µM (≈ 0.45 µg/mL) and the MIC50 [3, 12] is reported as 9.02 µM (≈ 6.2 µg/mL). The MIC50 [4, 15] was 0.2 µM (≈ 0.138 µg/mL), the MIC50 [5, 13] was 0.39 µM (≈ 0.268 µg/mL) and the MIC50 [6] was 3.13 µM (≈ 2.15 µg/mL). For the same compound, the MIC50 [7] was 0.78 µM (≈ 0.536 µg/mL), the “times more susceptible than parental strain (CAF2-1)” value [7] was “four” and the MIC50 ([8]; Candida albicans, GU5, 48 h) was 50 µM (≈ 34.4 µg/mL). For the same compound, the “times more resistant than Gu4 strain” value [8] was “sixteen”, the “times more active than Flc” value [9] was “two” and the MIC50 [9] was 3.13 µM (≈ 2.15 µg/mL).

`O=P(CN1CCN(c2ccc(OC[C@H]3CO[C@](Cn4ccnc4)(c4ccc(Cl)cc4Cl)O3)cc2)CC1)(c1ccccc1)c1ccccc1` (racemic) [KeOP, Ph2P(O)CH2-Ke] was tested, and the MIC50 [1] was 3.13 µM (≈ 2.2 µg/mL), the MIC50 ([2]; Saccharomyces cerevisiae) was 0.00482 µM (≈ 0.00339 µg/mL) and the MIC50 [3, 12] was 0.00416 µM (≈ 0.00293 µg/mL). The MIC50 [4, 15] was 0.05 µM (≈ 0.0352 µg/mL), the MIC50 [5, 13] was 1.56 µM (≈ 1.1 µg/mL) and the MIC50 [6] was 12.5 µM (≈ 8.8 µg/mL). The MIC50 [7] was 0.2 µM (≈ 0.141 µg/mL), the “times more susceptible than parental strain (CAF2-1)” value [7] was “four” and the MIC50 ([8]; Candida albicans, GU5, 48 h) was 25 µM (≈ 17.6 µg/mL). For the same compound, the “times more resistant than Gu4 strain” value [8] was “two”, the “times more active than Flc” value [9] was “eight” and the MIC50 [9] was 0.78 µM (≈ 0.549 µg/mL).
